Test results published in PMC9686516, “Pharmacokinetic Characteristics of Nebulized Colistimethate Sodium Using Two Different Types of Nebulizers in Critically Ill Patients with Ventilator-Associated Respiratory Infections” (Antibiotics, 2022).
Read-outs that look alike come from different tables or passages of the source. Where a SMILES comes first, the peptide text is derived from it. Bridges are numbered along the chain shown (N, C = ends). [ ]: non-standard residue; d: D form. The star is where a group is joined. X1 = CC[C@H](C)CCCCC(=O)*; Dab = NCC[C@H](N)C(=O)O

Legend:
[1] = adjunctive aerosolized colistin; meta-analysis of mostly observational data; cited from earlier work
Excerpt: The rationale has been the theoretic ability to achieve sufficient concentration in the infectious milieu of the lung parenchyma while sparing any significant systemic adverse outcome. In contrast to these theoretical considerations, inhaled CMS has only had modest efficacy and in ...

[2] = Colistin pharmacokinetics in plasma after nebulized CMS in ventilated VARI patients; format: in vivo, human; details: for Volume of distribution/ fraction of dose absorbed / Clearance/fraction of dose absorbed / Cmax / AUC0–8 h: NCA; for Volume of distribution/ fraction of dose absorbed: dose/(λ × AUCinf); for Volume of distribution/ fraction of dose absorbed / Clearance/fraction of dose absorbed / Cmax / Cmin / AUC0–8 h / level at 0.5 h / level at 1 h / level at 2 h / level at 4 h / level at 6 h / level at 8 h / Tmax: median (IQR); for Clearance/fraction of dose absorbed: dose/AUCinf; for AUC0–8 h: no systemic CMS, HPLC-fluorescence; for level at 0.5 h / level at 1 h / level at 2 h / level at 4 h / level at 6 h / level at 8 h / Tmax: 2 mIU; for level at 0.5 h: 0.5 h post-nebulization; for level at 0.5 h / level at 1 h / level at 2 h / level at 4 h / level at 6 h / level at 8 h: read-out: Ccolistin, plasma; for level at 1 h: 1 h post-nebulization; for level at 2 h: 2 h post-nebulization; for level at 4 h: 4 h post-nebulization; for level at 6 h: 6 h post-nebulization; for level at 8 h: 8 h post-nebulization
Excerpt: The study population consisted of 24 critically ill adult patients, admitted to the intensive care unit of the First Department of Pulmonology of the National and Kapodistrian University of Athens between June 2014 and November 2017. All patients were intubated and mechanically ventilated, and received inhaled CMS as part of their treatment for VAP or VAT caused by Gram-negative pathogens. Subjects were studied around the first dose of nebulized treatment, which always preceded intravenous treatment, to avoid confounding by colistin (or CMS) reaching the ELF via the systemic circulation. We excluded patients that received a dose different to the institution’s standard of 2 million international units (mIU) (~160 mg) of CMS and patients who were planned to receive intravenous colistin within 8 h of nebulization initiation.
A dose of 2 mIU of CMS (Colistin®, Norma Hellas, Athens, Greece), corresponding to approximately 160 mg CMS or 68 mg colistin-base activity, was nebulized over a 10–30 min period via either VMN (Aeroneb Solo with Aeroneb Pro controller, Aerogen, Galway, Ireland) or generic JN. This was not a randomized trial, and the nebulizer selection was exclusively a matter of availability of VMN consumables in the ICU at the time. The intended dose was dissolved in 4 mL of normal saline 0.9%. The nebulizer was placed at the inspiratory limb of the ventilator circuit, at 15 cm from the Y-piece, and the heat and moisture exchanger was removed. During nebulization, the patients were sedated and ventilated using assist volume controlled mode, with tidal volume set at 8 mL/kg of ideal body weight, a constant squared-wave inspiratory flow, a positive end expiratory pressure (PEEP) of less than or equal to 10 cm H2O, an inspiratory to expiratory time ratio equal to 1, an inspiratory pause of 10%, and a respiratory rate set at 15/min [31].
[…] The specimens were immediately centrifuged (3500× g for 10 min) in a frigid centrifuge (at 4 °C) and supernatants were collected in Eppendorfs and were frozen at −80 °C until analysis.
Colistin concentrations in plasma (Ccolistin,plasma) and epithelial lining fluid (Ccolistin,ELF) were measured through high performance liquid chromatography (HPLC)-fluorescence analysis.
The samples were rapidly centrifuged, and plasma and BAL supernatant were separated and kept frozen (−80 °C) before analysis, as previously described. An HPLC-RF assay was used for colistin concentration measurements in plasma and BAL fluid samples, based on the method of Li et al., as modified by Markou et al. and Ratjen et al.. Briefly, netilmicin was used as the internal standard and the method consisted of a protein precipitation step with trifluoracetic acid (TFA), followed by colistin derivatization with 9-fluorenylmethyl chloroformate on a solid phase extraction C18 cartridge. The eluted fluid was dried under vacuum and the solid residue was reconstituted in mobile phase for subsequent reversed-phase HPLC with fluorescence detection (excitation: 260 nm; emission: 316 nm). The analytical column was a Phenomenex Luna C18, 3 μm, 50 mm × 3 mm with 100 Å particle size, while the mobile phase consisted of ACN/THF/H2O (80/7.7/12.3%) with a flow rate of 0.5 mL/min. The injection volume was 20 μL. The method was linear at a concentration range of 0.10–4.8 mg/L (R^2 = 0.999). The limit of detection (LOD) and lower limit of quantification (LLOQ) were 0.01 and 0.04 mg/L, respectively, while the intra- and inter-assay variabilities were less than 16%. Representative chromatograms and calibration curves in plasma and BAL are given in the Supplementary Material (Figures S1 and S2).
PK analysis was performed on measured serum and ELF concentrations using the Phoenix® version 8.3 PK/PD software package (Certara, Princeton, NJ, USA). […]

[3] = human, inhaled or intranasal, JN, n = 6, 2 mIU CMS inhaled
[4] = human, inhaled or intranasal, VMN, n = 18, 2 mIU CMS inhaled

CC[C@H](C)CCCCC(=O)N[C@@H](CCN)C(=O)N[C@H](C(=O)N[C@@H](CCN)C(=O)N[C@H]1CCNC(=O)[C@H]([C@@H](C)O)NC(=O)[C@H](CCN)NC(=O)[C@H](CCN)NC(=O)[C@H](CC(C)C)NC(=O)[C@@H](CC(C)C)NC(=O)[C@H](CCN)NC1=O)[C@@H](C)O [colistin] (X1-[Dab]T[Dab][Dab][Dab][dL]L[Dab][Dab]T; lactam 4-C)
decrease in the odds of infection-related mortality [1]: ~40%
increase in the odds of clinical cure [1]: approximately 60%
Ccolistin over 2 mg/L, frequency of patients ([2]; 30 min, JN, n = 6, 2 mIU CMS inhaled): 0%
Ccolistin over 2 mg/L, frequency of patients ([2]; 30 min, VMN, n = 18, 2 mIU CMS inhaled): 0%
Ccolistin over 2 mg/L, frequency of patients ([2]; 60 min, JN, n = 6, 2 mIU CMS inhaled): 16.7%
Ccolistin over 2 mg/L, frequency of patients ([2]; 60 min, VMN, n = 18, 2 mIU CMS inhaled): 61.1%
Ccolistin over 2 mg/L, frequency of patients ([2]; 120 min, JN, n = 6, 2 mIU CMS inhaled): 16.7%
Ccolistin over 2 mg/L, frequency of patients ([2]; 120 min, VMN, n = 18, 2 mIU CMS inhaled): 22.2%
Ccolistin over 2 mg/L, frequency of patients ([2]; 240 min, JN, n = 6, 2 mIU CMS inhaled): 16.7%
Ccolistin over 2 mg/L, frequency of patients ([2]; 240 min, VMN, n = 18, 2 mIU CMS inhaled): 5.6%
Ccolistin over 2 mg/L, frequency of patients ([2]; 360 min, JN, n = 6, 2 mIU CMS inhaled): 0%
Ccolistin over 2 mg/L, frequency of patients ([2]; 360 min, VMN, n = 18, 2 mIU CMS inhaled): 0%
Ccolistin over 2 mg/L, frequency of patients ([2]; 480 min, JN, n = 6, 2 mIU CMS inhaled): 0%
Ccolistin over 2 mg/L, frequency of patients ([2]; 480 min, VMN, n = 18, 2 mIU CMS inhaled): 0%
Volume of distribution/ fraction of dose absorbed ([2]; JN, n = 6, 2 mIU CMS inhaled): 129.8 (95.6–151.9) L
Clearance/fraction of dose absorbed ([2]; JN, n = 6, 2 mIU CMS inhaled): 37.6 (23.2–39.9) L/h
Cmax ([2]; JN, n = 6, 2 mIU CMS inhaled): 0.3 (0.3–1.6) mg/L
AUC0–24 ([2]; JN, n = 6, 2 mIU CMS inhaled, calculated as AUCinf × 3, median (IQR)): 4.0 (3.8–19.3) mg/L∙h
Cmin ([2]; JN, n = 6, 2 mIU CMS inhaled): 0.1 (0.1–0.2) mg/L
AUC0–8 h ([2]; JN, n = 6, 2 mIU CMS inhaled): 1.3 (1.3–6.4) mg/L∙h
Mean T1/2 (SD) ([2]; JN, n = 6, 2 mIU CMS inhaled, t1/2 = 0.693/λ, mean (SD), SD): 2.4 (0.5) h
Volume of distribution/ fraction of dose absorbed ([2]; VMN, n = 18, 2 mIU CMS inhaled): 22.8 (16.8–33.0) L
Clearance/fraction of dose absorbed ([2]; VMN, n = 18, 2 mIU CMS inhaled): 7.3 (6.0–9.1) L/h
Cmax ([2]; VMN, n = 18, 2 mIU CMS inhaled): 2.6 (2.0–3.5) mg/L
Cmin ([2]; VMN, n = 18, 2 mIU CMS inhaled): 0.2 (0.1–0.3) mg/L
AUC0–8 h ([2]; VMN, n = 18, 2 mIU CMS inhaled): 7.5 (5.5–8.8) mg/L∙h
level at 0.5 h [2, 3]: 100 ng/mL
level at 0.5 h [2, 4]: 600 ng/mL
level at 1 h [2, 3]: 100 ng/mL
level at 1 h [2, 4]: 2300 ng/mL
level at 2 h [2, 3]: 300 ng/mL
level at 2 h [2, 4]: 1700 ng/mL
level at 4 h [2, 3]: 200 ng/mL
level at 4 h [2, 4]: 800 ng/mL
level at 6 h [2, 3]: 100 ng/mL
level at 6 h [2, 4]: 400 ng/mL
level at 8 h [2, 3]: 100 ng/mL
level at 8 h [2, 4]: 200 ng/mL
Tmax [2, 3]: 2.2 h
Tmax [2, 4]: 1.5 h
half-life ([2]; human, inhaled or intranasal, VMN, n = 18, 2 mIU CMS inhaled, t1/2 = 0.693/λ, mean (SD), SD): 2.4 h
